Measurements: PMC6775102, “Lifespan-increasing drug nordihydroguaiaretic acid inhibits p300 and activates autophagy” (NPJ Aging and Mechanisms of Disease, 2019)

Target: T1, p300 (Homo sapiens, UniProt Q09472)
T1 construct: gene EP300; p300 BHC (bromodomain, catalytic acetyltransferase domain, and C/H3 domain, amino acids 965–1810); also p300 HAT (amino acids 1284–1673)
T1 sequence (Q09472 965-1810): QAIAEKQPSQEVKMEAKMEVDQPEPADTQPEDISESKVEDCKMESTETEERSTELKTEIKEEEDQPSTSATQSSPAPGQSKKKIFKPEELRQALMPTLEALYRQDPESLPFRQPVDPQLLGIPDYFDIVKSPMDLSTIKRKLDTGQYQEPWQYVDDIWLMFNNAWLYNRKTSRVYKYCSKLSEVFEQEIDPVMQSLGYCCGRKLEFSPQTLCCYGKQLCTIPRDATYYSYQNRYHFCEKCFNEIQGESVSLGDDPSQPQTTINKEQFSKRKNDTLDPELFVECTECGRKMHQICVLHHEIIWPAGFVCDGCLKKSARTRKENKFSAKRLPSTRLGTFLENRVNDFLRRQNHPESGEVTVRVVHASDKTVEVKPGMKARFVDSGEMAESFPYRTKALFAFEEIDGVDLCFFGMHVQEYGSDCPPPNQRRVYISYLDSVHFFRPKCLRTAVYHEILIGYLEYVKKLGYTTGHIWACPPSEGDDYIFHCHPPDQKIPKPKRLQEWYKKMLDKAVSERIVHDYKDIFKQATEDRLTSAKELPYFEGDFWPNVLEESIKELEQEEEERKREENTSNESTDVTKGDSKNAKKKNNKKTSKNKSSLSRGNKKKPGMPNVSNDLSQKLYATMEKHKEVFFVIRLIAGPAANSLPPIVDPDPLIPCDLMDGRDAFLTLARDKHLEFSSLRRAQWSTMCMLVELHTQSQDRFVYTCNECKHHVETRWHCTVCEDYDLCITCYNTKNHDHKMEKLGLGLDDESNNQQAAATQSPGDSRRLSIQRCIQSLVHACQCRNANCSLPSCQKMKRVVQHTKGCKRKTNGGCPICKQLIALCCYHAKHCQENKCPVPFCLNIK
Experiment: fluorimetric acetyltransferase assay with recombinant p300 BHC and H3 peptide; second assay with p300 HAT; supported by CETSA of p300 HAT in HEK293T cells (+[…] °C)
Type: biochemical

- IC50: 10.3 µM
Structure (SMILES): CC(Cc1ccc(O)c(O)c1)C(C)Cc1ccc(O)c(O)c1 (stereo not shown) [nordihydroguaiaretic acid]
